Results published in patent EP1884568A1, “METHOD FOR IDENTIFICATION OF COMPOUND HAVING ANTIDEPRESSANT EFFECT” (Daiichi Sankyo Company, Limited, priority 2005, dated 2006).

Target: T1, ph01207 (Homo sapiens, UniProt O60241, DEL308-362)
T1 construct: containing an ORF that encodes 1518 amino acid residues; expressed in transfected cells; host or cells: CHO-K1 (clone ph01207 #3F8-17)
Assay: Inhibition of the CCK-8S response (intracellular Ca2+), ph01207 #3F8-17 cell line
Format: cell-based
Conditions: for response of ph01207 #3F8-17 cell line to the ligand (increase in intracellular Ca^2+ by CCK-8S): compound 10 µg/mL added 35 sec before 10 nM CCK-8S, buffer as control
Description: Identification of a compound that inhibits a response of ph01207 gene product to a ligand was carried out with a system for measuring a change in intracellular calcium concentration using ph01207 expressing cell line.
ph01207 expressing cell line was constructed as follows. […] Detection of the expression of introduced genes in cells was carried out by FCM analysis using anti-ph01207 antibody
As a result, a plurality of cell lines that stably expressed ph01207 was obtained. Identification of a compound was carried out using ph01207 #3F8-17 cell line that was one of clones among them.
As a ligand, CCK-8S (Peptide Institute) was used. 0.52 mg of CCK-8S (SEQ ID NO: 14) was dissolved in 4.5 mL of 1% NaHCO3 (Wako) to prepare a solution of 0.1 mM concentration. As a test compound, SoftFocus GPCR Target-Directed Library that is a compound library (BioFocus) was used. A 2 mg/mL DMSO solution of each compound was diluted 25-fold with PBS to adjust the concentration to 80 µg/mL for use.
Specifically, identification of a compound was carried out as follows. ph01207 #3F8-17 cell line was seeded in 96-well plates with a black wall surface and transparent bottom) at 3 × 10^4 cells /100 µL medium/well, and cultured at 37°C in the presence of 5% CO2. DMEM/F12 (supplied by Gibco) containing 10% fetal calf serum (supplied by Moregate) was used as the medium. On the next day, 20 µL of 6 × loading buffer was added to each well to allow for a reaction at 37°C for 1 h so as to allow cells to incorporate fluorescent dye contained in the loading buffer. The 6 × loading buffer was prepared by dissolving component A of the FLIPR Calcium 3 Assay Kit (Molecular Devices Corp.) with component B followed by adding probenecid (Sigma) to have a final concentration of 15 mM. After the reaction, CCK-8S (Peptide Institute) and a compound were added to measure a change in the fluorescence intensity time-dependently for each well for 80 sec. […] A time-dependent measurement of the change in the fluorescence intensity was carried out using FLEXstation (Molecular Devices Corp.).

T1 sequence (O60241 with tags, fused parts or gaps isoform O60241-3 DEL296-350): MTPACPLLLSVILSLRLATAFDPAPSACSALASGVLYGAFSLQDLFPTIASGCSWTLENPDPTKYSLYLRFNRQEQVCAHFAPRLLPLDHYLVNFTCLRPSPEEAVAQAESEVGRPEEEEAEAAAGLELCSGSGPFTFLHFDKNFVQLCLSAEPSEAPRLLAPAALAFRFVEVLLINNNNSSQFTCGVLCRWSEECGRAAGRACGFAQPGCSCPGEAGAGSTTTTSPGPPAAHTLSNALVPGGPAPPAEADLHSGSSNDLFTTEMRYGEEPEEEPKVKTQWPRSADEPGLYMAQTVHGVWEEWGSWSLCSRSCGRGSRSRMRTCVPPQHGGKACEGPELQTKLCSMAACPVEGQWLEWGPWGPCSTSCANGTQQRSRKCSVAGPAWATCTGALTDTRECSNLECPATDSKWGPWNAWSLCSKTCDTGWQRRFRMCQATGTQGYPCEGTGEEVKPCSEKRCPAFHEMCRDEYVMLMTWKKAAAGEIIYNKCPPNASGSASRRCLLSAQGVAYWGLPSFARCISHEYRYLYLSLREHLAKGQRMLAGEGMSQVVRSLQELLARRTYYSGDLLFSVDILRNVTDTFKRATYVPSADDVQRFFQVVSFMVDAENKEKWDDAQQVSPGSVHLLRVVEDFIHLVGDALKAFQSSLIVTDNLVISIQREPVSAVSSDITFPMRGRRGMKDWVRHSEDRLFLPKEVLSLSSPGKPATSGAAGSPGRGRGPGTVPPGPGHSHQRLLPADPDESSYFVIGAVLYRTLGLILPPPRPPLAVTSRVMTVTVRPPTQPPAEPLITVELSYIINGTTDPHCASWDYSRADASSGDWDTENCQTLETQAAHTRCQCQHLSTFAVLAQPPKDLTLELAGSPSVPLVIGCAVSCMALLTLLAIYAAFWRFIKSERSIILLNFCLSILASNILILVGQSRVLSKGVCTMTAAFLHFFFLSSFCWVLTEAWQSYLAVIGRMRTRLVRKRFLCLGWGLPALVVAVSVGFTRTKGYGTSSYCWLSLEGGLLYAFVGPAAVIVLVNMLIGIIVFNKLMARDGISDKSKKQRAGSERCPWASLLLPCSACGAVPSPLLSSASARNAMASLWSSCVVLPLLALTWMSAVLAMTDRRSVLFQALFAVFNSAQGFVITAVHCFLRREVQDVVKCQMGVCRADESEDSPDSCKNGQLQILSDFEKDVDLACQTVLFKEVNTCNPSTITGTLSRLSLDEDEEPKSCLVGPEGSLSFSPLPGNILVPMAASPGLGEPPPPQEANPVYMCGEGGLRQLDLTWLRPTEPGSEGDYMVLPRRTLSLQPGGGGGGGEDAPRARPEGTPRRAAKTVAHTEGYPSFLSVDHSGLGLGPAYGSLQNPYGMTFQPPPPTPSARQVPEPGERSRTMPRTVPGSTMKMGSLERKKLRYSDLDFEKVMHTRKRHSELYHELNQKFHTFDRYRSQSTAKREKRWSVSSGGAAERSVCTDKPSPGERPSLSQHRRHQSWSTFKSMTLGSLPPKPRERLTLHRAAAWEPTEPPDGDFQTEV

Compound	change in fluorescence intensity on addition of the compound alone (ph01207 #3F8-17 cell line, compound 10 µg/mL added at 15 sec, before CCK-8S)	response of ph01207 #3F8-17 cell line to the ligand (increase in intracellular Ca^2+ by CCK-8S)
O=C(Nc1cccc(C(F)(F)F)c1)N1CCC2(C1)NCCc1c2[nH]c2ccccc12 (stereo not drawn) [compound A]	No change	
O=C(Nc1ccccc1)N1CCC2(CC1)NCCc1c2[nH]c2ccccc12 [compound B]		inhibited
O=C(c1cnc2ccccc2c1)N1CCC2(CC1)OCc1ccccc1O2 [compound C]		inhibited
